# Measured values published in article PMC5059851, “Inhibition of Hedgehog-dependent tumors and cancer stem cells by a newly identified naturally occurring chemotype” (Cell Death & Disease, 2016).
# Key:
# Gli1 mRNA = Gli1 mRNA (qRT-PCR) in 22Rv1 cells; format: cell-based, human; conditions: after treatment
# Experimental: After the indicated times, a trypan blue count was performed to determine the growth rate. […] Results were normalized to endogenous control (β-actin and HPRT).
# (§1) Total RNA was isolated with Trizol (Invitrogen/Life Technologies, Carlsbad, CA, USA) and reverse transcribed with SensiFAST cDNA Synthesis Kit (Bioline Reagents Limited, London, UK). Quantitative real-time PCR (Q-PCR) analysis of Gli1, Gli2, Ptch1, Bmp2, Pfkfb3, CycD1, CycD2, Pcna, Oct4, Nanog, β-2 microglobulin, β-actin and HPRT mRNA expression was performed on each cDNA sample using the VIIA7 Real Time PCR System employing Assay-on-Demand Reagents (Life Technologies).
# [1] = test system: Hh target genes in SuFu^−/− MEFs; experiment: qRT-PCR of endogenous Hh target genes in SuFu−/− MEFs; format: cell-based, mouse; conditions: 48 h
# Experimental: as §1
smiles,measurement,setting,value
"COc1ccc(C=CC(=O)c2cc(OC)c(OC)cc2OC)cc1OC [Compound 12, 3-(3,4-dimethoxy-phenyl)-1-(2,4,5-trimethoxy-phenyl)-2-propen-1-one]",Gli1 mRNA levels in 22Rv1 cells,Gli1 mRNA,significant decrease of Gli1 mRNA levels
same,expression of endogenous Hh target genes in SuFu^−/− MEFs,[1],suppressed the expression of endogenous Hh target genes
